Test system: 292921-168-R-J2-PDC KRAS tumor spheroid viability
Assay: Anticancer human tumor 292921-168-R-J2-PDC patient-derived pancreatic carcinoma cell line growth inhibition [KRAS2]
Conditions: spheroids with HUVEC and MSC; for viability, T/C: stronger effect = lower value
Method in brief: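 Combination screen of spheroid viability in tumor-cell co-cultures with endothelial (HUVEC) and mesenchymal stem cell stroma. Each agent was tested in half-log dilutions, topping at clinical Cmax or at 10 microM without a known Cmax.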

[1] = curve of first compound, second compound 0.1 µM
[2] = curve of first compound, second compound 0.316 µM
[3] = curve of first compound, second compound 1 µM
[4] = curve of first compound, second compound 3.16 µM
[5] = curve of first compound, second compound 10 µM
[6] = second compound 0.1 µM, first compound 0.0316 µM
[7] = second compound 0.1 µM, first compound 0.1 µM
[8] = second compound 0.1 µM, first compound 0.316 µM
[9] = second compound 0.1 µM, first compound 1 µM
[10] = second compound 0.1 µM, first compound 3.16 µM
[11] = second compound 0.1 µM, first compound 10 µM
[12] = second compound 0.316 µM, first compound 0.0316 µM
[13] = second compound 0.316 µM, first compound 0.1 µM
[14] = second compound 0.316 µM, first compound 0.316 µM
[15] = second compound 0.316 µM, first compound 1 µM
[16] = second compound 0.316 µM, first compound 3.16 µM
[17] = second compound 0.316 µM, first compound 10 µM
[18] = second compound 1 µM, first compound 0.0316 µM
[19] = second compound 1 µM, first compound 0.1 µM
[20] = second compound 1 µM, first compound 0.316 µM
[21] = second compound 1 µM, first compound 1 µM
[22] = second compound 1 µM, first compound 3.16 µM
[23] = second compound 1 µM, first compound 10 µM
[24] = second compound 3.16 µM, first compound 0.0316 µM
[25] = second compound 3.16 µM, first compound 0.1 µM
[26] = second compound 3.16 µM, first compound 0.316 µM
[27] = second compound 3.16 µM, first compound 1 µM
[28] = second compound 3.16 µM, first compound 3.16 µM
[29] = second compound 3.16 µM, first compound 10 µM
[30] = second compound 10 µM, first compound 0.0316 µM
[31] = second compound 10 µM, first compound 0.1 µM
[32] = second compound 10 µM, first compound 0.316 µM
[33] = second compound 10 µM, first compound 1 µM
[34] = second compound 10 µM, first compound 3.16 µM
[35] = second compound 10 µM, first compound 10 µM
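Also: drug exposure lasted seven days after spheroids formed for three days.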
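For viability, T/C in this document: percent of DMSO vehicle control viability which is 100%.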

For Cn1nccc1Nc1nccc(-c2cc3c(s2)C(C)(C)N(CCN2CCOCC2)C3=O)n1, the viability, T/C (compound 0.0316 µM) was 80.7% [middle of 5 runs], the viability, T/C (compound 0.1 µM) was 45.7% [middle of 5 runs] and the viability, T/C (compound 0.316 µM) was 21.1% [middle of 5 runs]. The viability, T/C (compound 1 µM) was 13.4% [middle of 4 runs], the viability, T/C (compound 3.16 µM) was 11.2% [middle of 4 runs] and the viability, T/C (compound 10 µM) was 11.7% [middle of 5 runs]. The IC50 (curve of compound) was 86 nM [middle of 5 runs].

COc1cc(Nc2ncc3c(n2)-c2ccc(Cl)cc2C(c2c(F)cccc2OC)=NC3)ccc1C(=O)O + CC1OCC2(CCN(c3cnc(Sc4ccnc(N)c4Cl)c(N)n3)CC2)C1N showed an IC50 [1] of under 31.6 nM, an IC50 [2] of under 31.6 nM and an IC50 [3] of under 31.6 nM. The IC50 [4] was under 31.6 nM, the IC50 [5] was under 31.6 nM and the viability, T/C [6] was 22.8%. For the same compound, the viability, T/C [7] was 21.9%, the viability, T/C [8] was 22.8% and the viability, T/C [9] was 22.3%. The viability, T/C [10] was 17.3%, the viability, T/C [11] was 14.1% and the viability, T/C [12] was 21.1%. For the same compound, the viability, T/C [13] was 18.9%, the viability, T/C [14] was 22.8% and the viability, T/C [15] was 19.9%. It also gave a viability, T/C [16] of 16.8%, a viability, T/C [17] of 10.6% and a viability, T/C [18] of 18.3%. It also gave a viability, T/C [19] of 15.5%, a viability, T/C [20] of 18.5% and a viability, T/C [21] of 15.5%. For the same compound, the viability, T/C [22] was 13.6%, the viability, T/C [23] was 10.8% and the viability, T/C [24] was 18.1%. For the same compound, the viability, T/C [25] was 16.4%, the viability, T/C [26] was 16.9% and the viability, T/C [27] was 14.9%. The viability, T/C [28] was 12.8%, the viability, T/C [29] was 10.2% and the viability, T/C [30] was 16%. The viability, T/C [31] was 16.7%, the viability, T/C [32] was 16.1% and the viability, T/C [33] was 15.7%. It also gave a viability, T/C [34] of 14% and a viability, T/C [35] of 10.3%.

Compound CN(C)C/C=C/C(=O)Nc1cc2c(Nc3ccc(F)c(Cl)c3)ncnc2cc1O[C@H]1CCOC1 + CC1OCC2(CCN(c3cnc(Sc4ccnc(N)c4Cl)c(N)n3)CC2)C1N has an IC50 [1] of over 100 nM, an IC50 [2] of 0.889 nM and an IC50 [3] of over 100 nM. The IC50 [4] was under 0.316 nM, the IC50 [5] was over 100 nM and the viability, T/C (second compound 0.1 µM, first compound 0.000316 µM) was 82.2%. For the same compound, the viability, T/C (second compound 0.1 µM, first compound 0.001 µM) was 73.3%, the viability, T/C (second compound 0.1 µM, first compound 0.00316 µM) was 60.9% and the viability, T/C (second compound 0.1 µM, first compound 0.01 µM) was 64.3%. The viability, T/C [6] was 57.5%, the viability, T/C [7] was 57.4% and the viability, T/C (second compound 0.316 µM, first compound 0.000316 µM) was 53.5%. The viability, T/C (second compound 0.316 µM, first compound 0.001 µM) was 48.3%, the viability, T/C (second compound 0.316 µM, first compound 0.00316 µM) was 46.9% and the viability, T/C (second compound 0.316 µM, first compound 0.01 µM) was 45.9%. It also gave a viability, T/C [12] of 52.3%, a viability, T/C [13] of 46.1% and a viability, T/C (second compound 1 µM, first compound 0.000316 µM) of 92%. The viability, T/C (second compound 1 µM, first compound 0.001 µM) was 78%, the viability, T/C (second compound 1 µM, first compound 0.00316 µM) was 94% and the viability, T/C (second compound 1 µM, first compound 0.01 µM) was 88.6%. The viability, T/C [18] was 93%, the viability, T/C [19] was 79.8% and the viability, T/C (second compound 3.16 µM, first compound 0.000316 µM) was 23.2%. The viability, T/C (second compound 3.16 µM, first compound 0.001 µM) was 25.3%, the viability, T/C (second compound 3.16 µM, first compound 0.00316 µM) was 28.8% and the viability, T/C (second compound 3.16 µM, first compound 0.01 µM) was 29.8%. For the same compound, the viability, T/C [24] was 31.2%, the viability, T/C [25] was 33.2% and the viability, T/C (second compound 10 µM, first compound 0.000316 µM) was 50.8%. It also gave a viability, T/C (second compound 10 µM, first compound 0.001 µM) of 75.5%, a viability, T/C (second compound 10 µM, first compound 0.00316 µM) of 82.6% and a viability, T/C (second compound 10 µM, first compound 0.01 µM) of 88.3%. For the same compound, the viability, T/C [30] was 91.5% and the viability, T/C [31] was 85.5%.

With CC(C)NCC(C(=O)N1CCN(c2ncnc3c2C(C)CC3O)CC1)c1ccc(Cl)cc1 (centres undefined) + C=CC(=O)N1CCN(c2nc(=O)n(-c3c(C)ccnc3C(C)C)c3nc(-c4c(O)cccc4F)c(F)cc23)C(C)C1 the IC50 [1] was over 10000 nM, the IC50 [2] was over 10000 nM and the IC50 [3] was 6050 nM. The IC50 [4] was 1640 nM, the IC50 [5] was under 31.6 nM and the viability, T/C [6] was 95.3%. For the same compound, the viability, T/C [7] was 91.2%, the viability, T/C [8] was 88.1% and the viability, T/C [9] was 86.3%. For the same compound, the viability, T/C [10] was 79.4%, the viability, T/C [11] was 50.9% and the viability, T/C [12] was 96.3%. For the same compound, the viability, T/C [13] was 96.2%, the viability, T/C [14] was 85.7% and the viability, T/C [15] was 81.1%. It also gave a viability, T/C [16] of 67.4%, a viability, T/C [17] of 52.7% and a viability, T/C [18] of 92.7%. The viability, T/C [19] was 82.3%, the viability, T/C [20] was 76.1% and the viability, T/C [21] was 75.8%. It also gave a viability, T/C [22] of 63.8%, a viability, T/C [23] of 39.8% and a viability, T/C [24] of 51.9%. It also gave a viability, T/C [25] of 63.9%, a viability, T/C [26] of 58.7% and a viability, T/C [27] of 53.1%. For the same compound, the viability, T/C [28] was 44.4%, the viability, T/C [29] was 25.9% and the viability, T/C [30] was 18.6%. The viability, T/C [31] was 22.1%, the viability, T/C [32] was 17.8% and the viability, T/C [33] was 15.3%. For the same compound, the viability, T/C [34] was 18.3% and the viability, T/C [35] was 11.8%.

For CC1(C)CCC(CN2CCN(c3ccc(C(=O)NS(=O)(=O)c4ccc(NCC5CCOCC5)c([N+](=O)[O-])c4)c(Oc4cnc5[nH]ccc5c4)c3)CC2)=C(c2ccc(Cl)cc2)C1 + COc1cc2nc(C)nc(NC(C)c3cc(N)cc(C(F)(F)F)c3)c2cc1OC1CCOC1, the IC50 [1] was 2090 nM, the IC50 [2] was 2180 nM and the IC50 [3] was 1820 nM. For the same compound, the IC50 [4] was 1380 nM, the IC50 [5] was under 31.6 nM and the viability, T/C [6] was 105%. It also gave a viability, T/C [7] of 94.4%, a viability, T/C [8] of 91.9% and a viability, T/C [9] of 93.4%. It also gave a viability, T/C [10] of 25.6%, a viability, T/C [11] of 14.3% and a viability, T/C [12] of 88.9%. The viability, T/C [13] was 81%, the viability, T/C [14] was 88.9% and the viability, T/C [15] was 91.6%. The viability, T/C [16] was 32.1%, the viability, T/C [17] was 8.02% and the viability, T/C [18] was 84.1%. It also gave a viability, T/C [19] of 80.5%, a viability, T/C [20] of 83% and a viability, T/C [21] of 85.8%. The viability, T/C [22] was 19.5%, the viability, T/C [23] was 8.25% and the viability, T/C [24] was 70.8%. The viability, T/C [25] was 70.6%, the viability, T/C [26] was 73.2% and the viability, T/C [27] was 63.4%. For the same compound, the viability, T/C [28] was 15.6%, the viability, T/C [29] was 8.28% and the viability, T/C [30] was 36.8%. The viability, T/C [31] was 31%, the viability, T/C [32] was 33.6% and the viability, T/C [33] was 27.3%. For the same compound, the viability, T/C [34] was 7.17% and the viability, T/C [35] was 6.32%.

With COc1cc(Nc2ncc3c(n2)-c2ccc(Cl)cc2C(c2c(F)cccc2OC)=NC3)ccc1C(=O)O the viability, T/C (compound 0.0316 µM) was 30.3% [middle of 5 runs], the viability, T/C (compound 0.1 µM) was 28% [middle of 5 runs] and the viability, T/C (compound 0.316 µM) was 30.6% [middle of 5 runs]. For the same compound, the viability, T/C (compound 1 µM) was 28.6% [middle of 5 runs], the viability, T/C (compound 3.16 µM) was 23.7% [middle of 5 runs] and the viability, T/C (compound 10 µM) was 17.8% [middle of 5 runs]. The IC50 (curve of compound) was under 31.6 nM.

Reference: PubChem BioAssay AID1963870 (Molecular Pharmacology Branch, DTP, NCI, 2024)
